Molecular target: T1, Axl (Homo sapiens, UniProt P30530)
T1 construct: endogenous in cells; host or cells: HeLa
T1 sequence (P30530 26-894): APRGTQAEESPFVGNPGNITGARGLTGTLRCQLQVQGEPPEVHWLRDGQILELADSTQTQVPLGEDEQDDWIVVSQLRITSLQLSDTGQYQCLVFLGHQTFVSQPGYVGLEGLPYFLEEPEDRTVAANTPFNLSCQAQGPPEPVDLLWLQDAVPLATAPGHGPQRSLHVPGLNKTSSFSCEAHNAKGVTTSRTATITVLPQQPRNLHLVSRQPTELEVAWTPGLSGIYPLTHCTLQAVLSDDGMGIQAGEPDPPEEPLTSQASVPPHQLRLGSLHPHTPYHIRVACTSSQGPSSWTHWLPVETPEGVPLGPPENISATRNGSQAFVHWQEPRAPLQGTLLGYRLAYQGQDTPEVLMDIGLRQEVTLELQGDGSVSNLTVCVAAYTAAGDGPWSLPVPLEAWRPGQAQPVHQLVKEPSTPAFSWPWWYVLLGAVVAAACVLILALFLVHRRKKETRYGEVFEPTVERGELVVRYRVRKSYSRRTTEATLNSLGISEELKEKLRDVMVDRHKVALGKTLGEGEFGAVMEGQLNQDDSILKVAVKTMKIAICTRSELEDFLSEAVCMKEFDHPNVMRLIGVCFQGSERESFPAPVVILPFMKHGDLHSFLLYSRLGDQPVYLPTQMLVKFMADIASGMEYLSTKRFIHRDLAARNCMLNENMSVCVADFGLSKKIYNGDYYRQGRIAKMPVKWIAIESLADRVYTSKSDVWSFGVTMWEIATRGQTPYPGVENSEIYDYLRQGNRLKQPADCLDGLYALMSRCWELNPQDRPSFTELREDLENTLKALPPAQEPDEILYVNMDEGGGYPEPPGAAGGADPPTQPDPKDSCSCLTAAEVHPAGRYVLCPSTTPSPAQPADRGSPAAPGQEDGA
Experiment: Phospho-AKT in-cell Western assay (inhibition of Axl activity)
Assay type: cell-based
Conditions: Hela cells, Axl antibody cross-linking stimulation, phospho-Akt chemiluminescence normalized to relative cell number
Experimental: The compounds of the invention were tested in the following assay for their ability to inhibit Axl activity.
Phospho-AKT in-Cell Western Assay
• Cell culture plate: 96 well assay plate (Corning 3610), white, clear bottom, tissue-culture treated. • Cells: Hela cells. • Starvation medium: For Axl stimulation: 0.5% FCS (fetal calf serum) in DMEM, plus Axl/Fc (extracellular domain of AXL fused to immunoglobulin Fc region) (R&D, 154-AL) 500 ng/mL. • For EGF (epidermal growth factor) stimulation: 0.5% FCS in DMEM (Dulbecco's modified Eagles medium). • Poly-L-Lysine 0.01% solution (the working solution): 10 μg/ml, dilute In PBS (phosphate buffered saline). • Axl antibody cross-linking: • 1st: Mouse anti-Axl (R&D, MAB154). • 2nd: Biotin-SP-conjugated AffiniPure goat anti-mouse IgG (H+L) (Jackson ImmunoResearch #115-065-003). • Fixing buffer: 4% formaldehyde in PBS. • Wash buffer: 0.1% TritonX-100 in PBS. • Quenching buffer: 3% H2O2, 0.1% Azide in wash buffer, Azide and hydrogen peroxide 1(H2O2) are added fresh. • Blocking buffer: 5% BSA in TBST (tris buffered saline plus 0.1% Tween 20). • Primary antibody: Rabbit anti-human Phospho-Akt antibody (Cell Signaling 9271): 1×250 diluted in blocking buffer. • Secondary antibody: HRP (horse radish peroxidase)-conjugated Goat anti-Rabbit secondary, stock solution: Jackson ImmunoResearch (Goat anti-Rabbit HRP, #111-035-144) 1:1 diluted in glycerol, store at −20° C. The working solution: 1×2000 dilution of stock in blocking buffer. • Chemiluminescent working solution (Pierce, 37030): SuperSignal ELISA (enzyme linked immunosorbant assay) Pico Chemiluminescent substrate. • Crystal Violet solution: Stock: 2.5% Crystal violet in methanol, filtered and kept at ambient temperature. The working solution: dilute the stock 1:20 with PBS immediately before use. • 10% SDS: working solution: 5% SDS (sodium dodecylsulfate), diluted in PBS Methods: Day 1:
A 96 well TC (tissue culture treated) plate was coated with 10 μg/mL poly-L-Lysine at 37° C. for 30 min, washed twice with PBS, and air-dried for 5 minutes before cells were added. Hela cells were seeded at 10,000 cells/well and the cells were starved in 100 μL starvation medium containing Axl/Fc for 24 hrs.
The cells were pre-treated with test compounds by adding 100 μL of 2× test compound to the starvation medium on the cells. The cells were incubated at 37° C. for 1 hr before stimulation.
The cells were stimulated by Axl-antibody cross-linking as follows: A 5×1st/2nd Axl antibody mixture was made (37.5 μg/mL 1st/100 μg/mL 2nd) in starvation medium and nutated at 4° C. with thorough mixing for 1-2 hours for clustering. The resulting mix was warmed to 37° C. 50 μL of 5×Axl 1st/2nd of antibody cluster was added to the cells and the cells were incubated at 37° C. for 5 min.
After 5 minutes stimulation, the plate was flicked to remove medium and the plate was tapped onto paper towels. Formaldehyde (4.0% in PBS, 100 μL) was added to fix the cells and the cells were incubated at ambient temperature for 20 min without shaking.
The cells were washed with a plate washer buffer to remove the formaldehyde solution. The plate was flicked to removed excess wash buffer and tapped onto paper towels. Quenching buffer (100 μL) was added to each well and the cells were incubated at ambient temperature for 20 minutes without shaking.
The cells were washed with a plate washer buffer to remove the quenching buffer. Blocking buffer (100 μL) was added and the cells were incubated at ambient temperature for at least an hour with gentle shaking.
The cells were washed with a plate washer buffer and diluted primary antibody (50 μL) was added to each well (blocking buffer was added to the negative control wells instead). The plates were incubated overnight at 4° C. with gentle shaking.
The wash buffer was removed, diluted secondary antibody (100 μL) was added, and the cells were incubated at ambient temperature for 1 hour with gentle shaking. […]

| IC50 (Table 3, formula (Ic)) [nM] | IC50 (Table 1, formula (Ia)) [nM] | Structure (SMILES) | also measured |
| --- | --- | --- | --- |
| < 1000 |  | CNC(=O)[C@H]1C[C@H]2C[C@H](C2(C)C)[C@@]1(C)Nc1nc(Nc2ccc3c(c2)OCCN3CCN2CCOCC2)ncc1Cl [Compound 58, (1R,2R,3S,5R)-2-(5-chloro-2-((3,4-dihydro-4-(2-(morpholin-4-yl)ethyl)-2H-benzo[b][1,4]oxazin-7-yl)amino)pyrimidin-4-ylamino)-N,2,6,6-tetramethylbicyclo[3.1.1]heptane-3-carboxamide] |  |
|  |  | CNC(=O)[C@H]1C[C@H]2C[C@H](C2(C)C)[C@@]1(C)Nc1nc(Nc2ccc3c(c2)CCN3CCN(C)C)ncc1Cl [Compound 27, (1R,2R,3S,5R)-2-(5-chloro-2-(1-(2-(dimethylamino)ethyl)indolin-5-ylamino)pyrimidin-4-ylamino)-N,2,6,6-tetramethylbicyclo[3.1.1]heptane-3-carboxamide] | IC50 (Table 4, formula (Id)): < 1000 nM |
|  | < 1000 | CNC(=O)[C@H]1C[C@H]2C[C@H](C2(C)C)[C@@]1(C)Nc1nc(Nc2ccc(N3CCN(C)CC3)c(Cl)c2)ncc1Cl [Compound 5, (1R,2R,3S,5R)-2-(5-chloro-2-(3-chloro-4-(4-methylpiperazin-1-yl)phenylamino)pyrimidin-4-ylamino)-N,2,6,6-tetramethylbicyclo[3.1.1]heptane-3-carboxamide] |  |
|  | < 1000 | CCN(CC)C1CCN(c2ccc(Nc3ncc(Cl)c(N[C@@]4(C)[C@@H](C(=O)NC)C[C@H]5C[C@@H]4C5(C)C)n3)cc2F)CC1 [Compound 32, (1R,2R,3S,5R)-2-(5-chloro-2-(3-fluoro-4-(4-(diethylamino)piperidin-1-yl)phenylamino)pyrimidin-4-ylamino)-N,2,6,6-tetramethylbicyclo[3.1.1]heptane-3-carboxamide] |  |
|  | 1000 to 10000 | CNC(=O)[C@H]1C[C@H]2C[C@H](C2(C)C)[C@@]1(C)Nc1nc(Nc2ccc(N3CCN(CCO)CC3)cc2)ncc1C [Compound 42, (1R,2R,3S,5R)-2-(5-methyl-2-(4-(4-(2-hydroxyethyl)piperazin-1-yl)phenylamino)pyrimidin-4-ylamino)-N,2,6,6-tetramethylbicyclo[3.1.1]heptane-3-carboxamide] |  |
|  |  | CNC(=O)[C@@H]1C[C@@H]2C[C@@H](C2(C)C)[C@]1(C)Nc1nc(Nc2ccc(N3CCOCC3)cc2)ncc1Cl [Compound 21, (1S,2S,3R,5S)-2-(5-chloro-2-(4-morpholinophenylamino)pyrimidin-4-ylamino)-N,2,6,6-tetramethylbicyclo[3.1.1]heptane-3-carboxamide] | IC50 (Table 2, formula (Ib)): 1000 to 10000 nM |
| 1000 to 10000 |  | CNC(=O)[C@H]1C[C@H]2C[C@H](C2(C)C)[C@@]1(C)Nc1nc(Nc2ccc3c(c2)OCCN3CCN2CCOCC2)ncc1F [Compound 59, (1R,2R,3S,5R)-2-(5-fluoro-2-((3,4-dihydro-4-(2-(morpholin-4-yl)ethyl)-2H-benzo[b][1,4]oxazin-7-yl)amino)pyrimidin-4-ylamino)-N,2,6,6-tetramethylbicyclo[3.1.1]heptane-3-carboxamide] |  |
| 1000 to 10000 |  | CNC(=O)[C@H]1C[C@H]2C[C@H](C2(C)C)[C@@]1(C)Nc1nc(Nc2ccc3c(c2)OCCN3CCN(C)C)ncc1F [Compound 48, (1R,2R,3S,5R)-2-(5-fluoro-2-((3,4-dihydro-4-(2-(dimethylamino)ethyl)-2H-benzo[b][1,4]oxazin-7-yl)amino)pyrimidin-4-ylamino)-N,2,6,6-tetramethylbicyclo[3.1.1]heptane-3-carboxamide] |  |
|  | < 1000 | CNC(=O)[C@H]1C[C@H]2C[C@H](C2(C)C)[C@@]1(C)Nc1nc(Nc2ccc(OCCN3CCCC3)cc2)ncc1Cl [Compound 1, (1R,2R,3S,5R)-2-(5-chloro-2-(4-(2-(pyrrolidin-1-yl)ethoxy)phenylamino)pyrimidin-4-ylamino)-N,2,6,6-tetramethylbicyclo[3.1.1]heptane-3-carboxamide] |  |
| 1000 to 10000 |  | CNC(=O)[C@H]1C[C@H]2C[C@H](C2(C)C)[C@@]1(C)Nc1nc(Nc2ccc3c(c2)N(CCN(C)C)CCO3)ncc1F [Compound 51, (1R,2R,3S,5R)-2-(5-fluoro-2-((3,4-dihydro-4-(2-(dimethylamino)ethyl)-2H-benzo[b][1,4]oxazin-6-yl)amino)pyrimidin-4-ylamino)-N,2,6,6-tetramethylbicyclo[3.1.1]heptane-3-carboxamide] |  |
| 1000 to 10000 |  | CNC(=O)[C@H]1C[C@H]2C[C@H](C2(C)C)[C@@]1(C)Nc1nc(Nc2ccc3c(c2)N(CCN(C)C)CCO3)ncc1Cl [Compound 50, (1R,2R,3S,5R)-2-(5-chloro-2-((3,4-dihydro-4-(2-(dimethylamino)ethyl)-2H-benzo[b][1,4]oxazin-6-yl)amino)pyrimidin-4-ylamino)-N,2,6,6-tetramethylbicyclo[3.1.1]heptane-3-carboxamide] |  |
|  | 1000 to 10000 | CNC(=O)[C@H]1C[C@H]2C[C@H](C2(C)C)[C@@]1(C)Nc1nc(Nc2ccc(N3CCN(S(C)(=O)=O)CC3)c(Cl)c2)ncc1F [Compound 36, (1R,2R,3S,5R)-2-(5-fluoro-2-(3-chloro-4-(4-methylsulfonylpiperazin-1-yl)phenylamino)pyrimidin-4-ylamino)-N,2,6,6-tetramethylbicyclo[3.1.1]heptane-3-carboxamide] |  |
|  | 1000 to 10000 | CNC(=O)[C@H]1C[C@H]2C[C@H](C2(C)C)[C@@]1(C)Nc1nc(Nc2ccc(N3CCN(C(C)=O)CC3)cc2)ncc1Cl [Compound 13, (1R,2R,3S,5R)-2-(2-(4-(4-acetylpiperazin-1-yl)phenylamino)-5-chloropyrimidin-4-ylamino)-N,2,6,6-tetramethylbicyclo[3.1.1]heptane-3-carboxamide] |  |
|  | < 1000 | CCN(CC)C1CCN(c2ccc(Nc3ncc(Cl)c(N[C@@]4(C)[C@@H](C(=O)NC5CC5)C[C@H]5C[C@@H]4C5(C)C)n3)cc2F)CC1 [Compound 62, (1R,2R,3S,5R)-2-(5-chloro-2-(3-fluoro-4-(4-(diethylamino)piperidin-1-yl)phenylamino)pyrimidin-4-ylamino)-N-cyclopropyl-2,6,6-trimethylbicyclo[3.1.1]heptane-3-carboxamide] |  |

Source: patent US8563559B2 (Rigel Pharmaceuticals, Inc., priority 2006, dated 2013)
